Measured values from the CheMixHub viscosity set.
± gives the uncertainty stated by the source.

Assay: xn = mol fraction of the nth substance listed

CC(C)CC(C)C + CCCCCCCCCCCC
viscosity (298 K, 101 kPa, x1 = 0.5): 0.7489 ± 0.02 mPa·s
viscosity (318 K, 101 kPa, x1 = 0.5): 0.5809 ± 0.015 mPa·s

CCCCOCCO + Cc1ccccc1
viscosity (298.15 K, 101 kPa, x1 = 0.055): 0.593 ± 0.011 mPa·s
viscosity (298.15 K, 101 kPa, x1 = 0.1509): 0.678 ± 0.012 mPa·s
viscosity (298.15 K, 101 kPa, x1 = 0.2513): 0.784 ± 0.014 mPa·s
viscosity (298.15 K, 101 kPa, x1 = 0.3489): 0.909 ± 0.015 mPa·s
viscosity (298.15 K, 101 kPa, x1 = 0.4511): 1.066 ± 0.018 mPa·s
viscosity (298.15 K, 101 kPa, x1 = 0.5015): 1.156 ± 0.019 mPa·s
viscosity (298.15 K, 101 kPa, x1 = 0.5525): 1.257 ± 0.021 mPa·s
viscosity (298.15 K, 101 kPa, x1 = 0.6512): 1.483 ± 0.024 mPa·s
viscosity (298.15 K, 101 kPa, x1 = 0.7494): 1.759 ± 0.028 mPa·s
viscosity (298.15 K, 101 kPa, x1 = 0.8498): 2.105 ± 0.033 mPa·s
viscosity (298.15 K, 101 kPa, x1 = 0.9541): 2.551 ± 0.039 mPa·s
viscosity (308.15 K, 101 kPa, x1 = 0.055): 0.531 ± 0.01 mPa·s
viscosity (308.15 K, 101 kPa, x1 = 0.1509): 0.597 ± 0.011 mPa·s
viscosity (308.15 K, 101 kPa, x1 = 0.2513): 0.679 ± 0.012 mPa·s
viscosity (308.15 K, 101 kPa, x1 = 0.3489): 0.775 ± 0.013 mPa·s
viscosity (308.15 K, 101 kPa, x1 = 0.4511): 0.896 ± 0.015 mPa·s
viscosity (308.15 K, 101 kPa, x1 = 0.5015): 0.965 ± 0.016 mPa·s
viscosity (308.15 K, 101 kPa, x1 = 0.5525): 1.042 ± 0.017 mPa·s
viscosity (308.15 K, 101 kPa, x1 = 0.6512): 1.215 ± 0.02 mPa·s
viscosity (308.15 K, 101 kPa, x1 = 0.7494): 1.425 ± 0.023 mPa·s
viscosity (308.15 K, 101 kPa, x1 = 0.8498): 1.689 ± 0.027 mPa·s
viscosity (308.15 K, 101 kPa, x1 = 0.9541): 2.03 ± 0.032 mPa·s

COC(=O)c1ccccc1 + c1ccccc1
viscosity (303.15 K, 101 kPa, x1 = 0.0773): 0.613 ± 0.011 mPa·s
viscosity (303.15 K, 101 kPa, x1 = 0.1534): 0.675 ± 0.011 mPa·s
viscosity (303.15 K, 101 kPa, x1 = 0.2362): 0.75 ± 0.01 mPa·s
viscosity (303.15 K, 101 kPa, x1 = 0.3252): 0.835 ± 0.012 mPa·s
viscosity (303.15 K, 101 kPa, x1 = 0.4217): 0.929 ± 0.012 mPa·s
viscosity (303.15 K, 101 kPa, x1 = 0.5176): 1.043 ± 0.012 mPa·s
viscosity (303.15 K, 101 kPa, x1 = 0.6241): 1.165 ± 0.013 mPa·s
viscosity (303.15 K, 101 kPa, x1 = 0.7379): 1.305 ± 0.013 mPa·s
viscosity (303.15 K, 101 kPa, x1 = 0.8662): 1.482 ± 0.014 mPa·s
viscosity (313.15 K, 101 kPa, x1 = 0.0773): 0.543 ± 0.011 mPa·s
viscosity (313.15 K, 101 kPa, x1 = 0.1534): 0.588 ± 0.011 mPa·s
viscosity (313.15 K, 101 kPa, x1 = 0.2362): 0.645 ± 0.011 mPa·s
viscosity (313.15 K, 101 kPa, x1 = 0.3252): 0.71 ± 0.01 mPa·s
viscosity (313.15 K, 101 kPa, x1 = 0.4217): 0.784 ± 0.012 mPa·s
viscosity (313.15 K, 101 kPa, x1 = 0.5176): 0.874 ± 0.012 mPa·s
viscosity (313.15 K, 101 kPa, x1 = 0.6241): 0.985 ± 0.012 mPa·s
viscosity (313.15 K, 101 kPa, x1 = 0.7379): 1.107 ± 0.013 mPa·s
viscosity (313.15 K, 101 kPa, x1 = 0.8662): 1.245 ± 0.013 mPa·s

COC(=O)c1ccccc1 + C1CCOC1
viscosity (303.15 K, 100 kPa, x1 = 0.0689): 0.496 ± 0.02 mPa·s
viscosity (303.15 K, 100 kPa, x1 = 0.1417): 0.562 ± 0.023 mPa·s
viscosity (303.15 K, 100 kPa, x1 = 0.2202): 0.638 ± 0.026 mPa·s
viscosity (303.15 K, 100 kPa, x1 = 0.303): 0.727 ± 0.029 mPa·s
viscosity (303.15 K, 100 kPa, x1 = 0.3932): 0.829 ± 0.034 mPa·s
viscosity (303.15 K, 100 kPa, x1 = 0.493): 0.951 ± 0.039 mPa·s
viscosity (303.15 K, 100 kPa, x1 = 0.6018): 1.096 ± 0.044 mPa·s
viscosity (303.15 K, 100 kPa, x1 = 0.7225): 1.262 ± 0.051 mPa·s
viscosity (303.15 K, 100 kPa, x1 = 0.8535): 1.446 ± 0.059 mPa·s
viscosity (308.15 K, 100 kPa, x1 = 0.0689): 0.484 ± 0.02 mPa·s
viscosity (308.15 K, 100 kPa, x1 = 0.1417): 0.546 ± 0.022 mPa·s
viscosity (308.15 K, 100 kPa, x1 = 0.2202): 0.616 ± 0.025 mPa·s
viscosity (308.15 K, 100 kPa, x1 = 0.303): 0.699 ± 0.028 mPa·s
viscosity (308.15 K, 100 kPa, x1 = 0.3932): 0.79 ± 0.032 mPa·s
viscosity (308.15 K, 100 kPa, x1 = 0.493): 0.904 ± 0.037 mPa·s
viscosity (308.15 K, 100 kPa, x1 = 0.6018): 1.032 ± 0.042 mPa·s
viscosity (308.15 K, 100 kPa, x1 = 0.7225): 1.181 ± 0.048 mPa·s
viscosity (308.15 K, 100 kPa, x1 = 0.8535): 1.343 ± 0.054 mPa·s
viscosity (313.15 K, 100 kPa, x1 = 0.0689): 0.443 ± 0.018 mPa·s
viscosity (313.15 K, 100 kPa, x1 = 0.1417): 0.505 ± 0.021 mPa·s
viscosity (313.15 K, 100 kPa, x1 = 0.2202): 0.567 ± 0.023 mPa·s
viscosity (313.15 K, 100 kPa, x1 = 0.303): 0.641 ± 0.026 mPa·s
viscosity (313.15 K, 100 kPa, x1 = 0.3932): 0.729 ± 0.03 mPa·s
viscosity (313.15 K, 100 kPa, x1 = 0.493): 0.83 ± 0.034 mPa·s
viscosity (313.15 K, 100 kPa, x1 = 0.6018): 0.943 ± 0.038 mPa·s
viscosity (313.15 K, 100 kPa, x1 = 0.7225): 1.078 ± 0.044 mPa·s
viscosity (313.15 K, 100 kPa, x1 = 0.8535): 1.22 ± 0.05 mPa·s
